Experimental data taken from patent publication US6660721B2, “Anti-HCV nucleoside derivatives” (Hoffmann-la Roche Inc., priority 2001, dated 2003).
Like-named read-outs stand apart in the source and are kept apart here.

System: HCV replicon RNA in human hepatoma Huh7 cells (cell line 2209-23)
Experiment: HCV Replicon assay (Renilla luciferase reporter, 2209-23 cells)
Format: cell-based, Hepatitis C virus
Details: for IC50: Hepatitis C virus, Huh-7, 72 h, read-out: IC50 (HCV Replicon assay)

SMILES: Nc1ccn([C@@H]2O[C@H](CO)[C@@H](O)[C@H]2F)c(=O)n1 [2′-Deoxy-2′-fluorocytidine]
- IC50 (Renilla luciferase HCV replicon cells 2209-23, three days incubation): 0.74 µM

SMILES: Nc1nc2c(ncn2[C@@H]2O[C@H](CO)[C@@H](O)[C@H]2F)c(=O)[nH]1 [2′-Deoxy-2′-fluoroguanosine]
- % reduction of replicon level at fixed concentration (@ 20 μM, Renilla luciferase HCV replicon cells 2209-23): 62% @ 20

SMILES: Nc1nc(N)c2ncn([C@@H]3O[C@H](CO)[C@@H](O)[C@H]3F)c2n1 [9-(2-Deoxy-2-fluoro-β-D-ribofuranosyl)-2,6-diaminopurine]
- IC50: 10 µM
